Measured values: PubChem BioAssay AID493146 (Sanford-Burnham Center for Chemical Genomics, 2011)
Activity calls are given as the source filed them. The rule behind the calls is not given here.

Target: intestinal alkaline phosphatase (Alpi), Mus musculus
Test: murine Alpi activation by analogs – biochemical, luminescence, SAR follow-up (AID 493146)
Conditions: purified mouse IAP, luminescent substrate

Row | Structure (SMILES) | EC50
1 | O=C(CCNS(=O)(=O)c1ccc2[nH]c(=O)oc2c1)Nc1ccccc1 | > 100 µM (inactive)
2 | CC(C(=O)Nc1ccc(C(=O)O)cc1)N1C(=O)/C(=C\c2ccco2)SC1=S (centres undefined) | > 100 µM (inactive)
3 | CC(C(=O)NCCc1ccc(O)cc1)N1C(=O)/C(=C/c2ccco2)SC1=S (centres undefined) | > 100 µM (inactive)
4 | O=C(CN1C(=O)/C(=C\c2ccco2)SC1=S)Nc1ccc(O)cc1C(=O)O | > 100 µM (inactive)
5 | O=C(CCCN1C(=O)/C(=C/c2ccco2)SC1=S)Nc1ccccc1 | > 100 µM (inactive)
6 | COc1cc([N+](=O)[O-])ccc1NC(=S)NCCC(c1ccccc1)c1ccccc1 | > 100 µM (inactive)
7 | O=C(CN1C(=O)/C(=C/c2ccco2)SC1=S)Nc1ccc2nccnc2c1 | > 100 µM (inactive)
8 | CC(C)N1CCC(=NNC(=O)c2cc(O)c(O)c(O)c2)CC1 | > 100 µM (inactive)
9 | COc1cc(C(=O)NN=Cc2ccccn2)cc(OC)c1OC | > 100 µM (inactive)
10 | CN(C(=O)CN1C(=O)/C(=C\c2ccco2)SC1=S)C1CCS(=O)(=O)C1 (centres undefined) | > 100 µM (inactive)
11 | COc1cc(C(=O)NNC(=S)NC(=O)c2ccccc2C)cc(OC)c1OC | > 100 µM (inactive)
12 | O=C(c1ccco1)N1CCN(S(=O)(=O)c2ccc3[nH]c(=O)oc3c2)CC1 | > 100 µM (inactive)
13 | Cc1ccc(NC(=O)CCNS(=O)(=O)c2ccc3[nH]c(=O)oc3c2)cc1 | > 100 µM (inactive)
14 | O=C(CN1C(=O)/C(=C/c2ccco2)SC1=S)NCCc1ccc(O)cc1 | > 100 µM (inactive)
15 | Cc1ccc(/C=N/NC(=O)c2cc(O)c(O)c(O)c2)cc1 | > 100 µM (inactive)

Other lines, results leading:

Row | EC50 | Structure (SMILES)
16 | > 100 µM (inactive) | COc1ccc(OC)c(NC(=O)CSc2sc3c(O)cc(=O)[nH]c3c2C#N)c1
17 | > 100 µM (inactive) | COc1cc(Cl)c(C)cc1NC(=O)CSc1sc2c(O)cc(=O)[nH]c2c1C#N
18 | > 100 µM (inactive) | Cc1ccc(NC(=O)CCNS(=O)(=O)c2ccc3[nH]c(=O)oc3c2)cc1F
19 | > 100 µM (inactive) | COC(=O)c1ccc(C)c(NC(=O)CSc2sc3c(O)cc(=O)[nH]c3c2C#N)c1
20 | > 100 µM (inactive) | N#Cc1c(SCC(=O)Nc2ccccc2C(F)(F)F)sc2c(O)cc(=O)[nH]c12
21 | > 100 µM (inactive) | COc1ccccc1NC(=O)CCNS(=O)(=O)c1ccc2[nH]c(=O)oc2c1
22 | > 100 µM (inactive) | N#Cc1cccc(NC(=O)CSc2sc3c(O)cc(=O)[nH]c3c2C#N)c1
23 | > 100 µM (inactive) | N#Cc1c(SCC(=O)NCc2ccc3c(c2)OCO3)sc2c(O)cc(=O)[nH]c12
24 | > 100 µM (inactive) | Cc1ccc(NC(=O)CSc2sc3c(O)cc(=O)[nH]c3c2C#N)c(F)c1
